Reference: patent US20200247812A1 (Integral Biosciences Private Limited, priority 2018, published 2020)
pIC50: −log10 of the molar value.

The compounds below were run against T1, ALK 5 (Homo sapiens, UniProt P36897) (assay: In vitro kinase assay (ALK5 IC50, LanthaScreen Terbium labeled TR-FRET)). Settings: TGF-β kinase 6 nM, ATP 10 μM, read-out: Enzyme Activity ALK 5 IC50.
T1 sequence (P36897 34-503): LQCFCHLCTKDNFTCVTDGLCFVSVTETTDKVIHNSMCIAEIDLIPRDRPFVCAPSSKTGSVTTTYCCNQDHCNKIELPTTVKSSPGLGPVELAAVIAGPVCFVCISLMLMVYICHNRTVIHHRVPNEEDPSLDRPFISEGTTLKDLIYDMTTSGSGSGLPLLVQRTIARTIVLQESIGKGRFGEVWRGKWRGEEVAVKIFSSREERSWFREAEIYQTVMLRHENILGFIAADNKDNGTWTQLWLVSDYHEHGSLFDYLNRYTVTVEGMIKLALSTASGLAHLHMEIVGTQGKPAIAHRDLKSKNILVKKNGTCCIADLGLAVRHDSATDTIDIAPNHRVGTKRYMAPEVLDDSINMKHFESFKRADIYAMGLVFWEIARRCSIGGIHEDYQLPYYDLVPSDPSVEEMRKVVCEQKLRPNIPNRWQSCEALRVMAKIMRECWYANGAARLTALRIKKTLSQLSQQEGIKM
Type: biochemical
Procedure: Compounds of the invention were screened in an in vitro kinase assay against ALK 5, a members of the TGF-β family of Ser/Thr kinases. Standard kinase testing conditions and techniques were employed. IC50 values of compounds against TGF-ß kinase was determined by LanthaScreen™ Terbium Labeled TR-FRET assay. Kinase assays were performed in 1X kinase buffer (# PV6135, Invitrogen, Life Technologies Grand Island, N.Y.) where total reaction volume was 10 μL in low-volume 384-well plates (#4511, Corning). Serially diluted compounds (3-fold) were incubated with TGF-β kinase (6 nM) for 10 min, following which a mixture of ATP (10 μM) (# A1852, Sigma, St-Louis, Mo.) and fluorescent-PolyGT substrate (200 nM); Cat # PV3610, Invitrogen, Life Technologies Grand Island, N.Y.) was added and incubated in dark at room temperature for 1 h. After 1 h, 10 μL stop solution containing Terbium labeled antibody (4 nM; Cat # PV3529, Invitrogen, Life Technologies Grand Island, N.Y.) and EDTA (# E5134, Sigma, St-Louis, Mo.; 20 mM) in TR-FRET dilution buffer (Cat # PV3574, Invitrogen, Life Technologies Grand Island, N.Y.) was added. Readings were taken in a Synergy Neo Plate reader (BioTek, Winooski) at single excitation of 340 nm and Dual emission at 495 nm and 520 nm respectively.
The % activity of test samples was calculated as (Sample-Min)×100/(Max −Min). [Max: DMSO control, complete reaction with enzyme with DMSO and Min: No enzyme with DMSO]. Percent inhibition (100-% activity) was fitted to the “four-parameter logistic model” in XLfit for determination of IC50 values.

Row | pIC50 | Structure (SMILES)
1 | ≥ 6.30 | CC(C)c1[nH]c(=O)c(-c2cc(Cl)ccc2F)cc1Nc1ccnc(NC(=O)CN2CCCC2)c1 [Compound 1.47, N-(4-((5-(5-chloro-2-fluorophenyl)-2-isopropyl-6-oxo-1,6-dihydropyridin-3-yl)amino)pyridin-2-yl)-2-(pyrrolidin-1-yl)acetamide]
2 | < 5.30 | CC(C)c1[nH]c(=O)c(-c2cc(Cl)ccc2F)cc1Nc1ccnc(NC(=O)C(C)(C)C)c1 [Compound 1.49, N-(4-((5-(5-chloro-2-fluorophenyl)-2-isopropyl-6-oxo-1,6-dihydropyridin-3-yl)amino)pyridin-2-yl)pivalamide]
3 | < 5.30 | CC(=O)Nc1cc(Nc2cc(-c3ccc(F)nc3)c(=O)[nH]c2C(C)C)ccn1 [Compound 1.51, N-(4-((6′-fluoro-6-isopropyl-2-oxo-1,2-dihydro-[3,3′-bipyridin]-5-yl)amino)pyridin-2-yl)acetamide]
4 | < 5.30 | CC(C)c1[nH]c(=O)c(-c2ccc(F)nc2)cc1Nc1ccnc2[nH]ccc12 [Compound 1.52, 5-((1H-pyrrolo[2,3-b]pyridin-4-yl)amino)-6′-fluoro-6-isopropyl-[3,3′-bipyridin]-2(1H)-one]
5 | < 5.30 | CC(=O)Nc1cc(Nc2cc(-c3ccccc3CO)c(=O)[nH]c2C(C)C)ccn1 [Compound 1.53, N-(4-((5-(2-(hydroxymethyl)phenyl)-2-isopropyl-6-oxo-1,6-dihydropyridin-3-yl)amino)pyridin-2-yl)acetamide]
6 | 5.70 to 6.30 | CC(=O)Nc1cc(Nc2cc(-c3cccc(C#N)c3)c(=O)[nH]c2C(C)C)ccn1 [Compound 1.54, N-(4-((5-(3-cyanophenyl)-2-isopropyl-6-oxo-1,6-dihydropyridin-3-yl)amino)pyridin-2-yl)acetamide]
7 | 5.30 to 5.70 | CC(C)c1[nH]c(=O)c(-c2cc(Cl)ccc2F)cc1Nc1ccnc(NC2CC2)c1 [Compound 1.55, 3-(5-chloro-2-fluorophenyl)-5-((2-(cyclopropylamino)pyridin-4-yl)amino)-6-isopropylpyridin-2(1H)-one]
8 | < 5.30 | CC(=O)Nc1cc(Nc2cc(-c3ccc(C(F)(F)F)nc3)c(=O)[nH]c2C(C)C)ccn1 [Compound 1.56, N-(4-((6-isopropyl-2-oxo-6′-(trifluoromethyl)-1,2-dihydro-[3,3′-bipyridin]-5-yl)amino)pyridin-2-yl)acetamide]
9 | ≥ 6.30 | CC(=O)Nc1cc(Nc2cc(-c3ccc(F)c(Cl)c3)c(=O)[nH]c2C(C)C)ccn1 [Compound 1.58, N-(4-((5-(3-chloro-4-fluorophenyl)-2-isopropyl-6-oxo-1,6-dihydropyridin-3-yl)amino)pyridin-2-yl)acetamide]
10 | < 5.30 | CC(C)c1[nH]c(=O)c(-c2cc(Cl)ccc2F)cc1Nc1ccnc(NS(C)(=O)=O)c1 [Compound 1.63, N-(4-((5-(5-chloro-2-fluorophenyl)-2-isopropyl-6-oxo-1,6-dihydropyridin-3-yl)amino)pyridin-2-yl)methanesulfonamide]
11 | < 5.30 | CC(=O)Nc1cc(Nc2cc(-c3cc(Cl)c(C)cc3F)c(=O)[nH]c2C(C)C)ccn1 [Compound 1.64, N-(4-((5-(5-chloro-2-fluoro-4-methylphenyl)-2-isopropyl-6-oxo-1,6-dihydropyridin-3-yl)amino)pyridin-2-yl)acetamide]
12 | < 5.30 | CC(C)c1[nH]c(=O)c(-c2cc(Cl)ccc2F)cc1Nc1ccnc(NC(=O)CN2CCOCC2)c1 [Compound 1.65, N-(4-((5-(5-chloro-2-fluorophenyl)-2-isopropyl-6-oxo-1,6-dihydropyridin-3-yl)amino)pyridin-2-yl)-2-morpholinoacetamide]
13 | ≥ 6.30 | COc1[nH]c(=O)c(-c2cc(Cl)ccc2F)cc1Nc1ccnc(NC(C)=O)c1 [Compound 1.75, N-(4-((5-(5-chloro-2-fluorophenyl)-2-methoxy-6-oxo-1,6-dihydropyridin-3-yl)amino)pyridin-2-yl)acetamide]
14 | ≥ 6.30 | CC(=O)Nc1cc(Nc2cc(-c3ccsc3)c(=O)[nH]c2C(C)C)ccn1 [Compound 1.79, N-(4-((2-isopropyl-6-oxo-5-(thiophen-3-yl)-1,6-dihydropyridin-3-yl)amino)pyridin-2-yl)acetamide]

Second part, the compound before the results:

Row | Structure (SMILES) | pIC50
15 | CC(C)c1[nH]c(=O)c(-c2cc(Cl)ccc2F)cc1Nc1c(F)cnc2[nH]ccc12 [Compound 1.57, 3-(5-chloro-2-fluorophenyl)-5-((5-fluoro-1H-pyrrolo[2,3-b]pyridin-4-yl)amino)-6-isopropylpyridin-2(1H)-one] | ≥ 6.30
16 | CC(C)c1[nH]c(=O)c(-c2cc(Cl)ccc2F)cc1Nc1ccnc2[nH]ccc(=O)c12 [Compound 1.59, 5-((5-(5-chloro-2-fluorophenyl)-2-isopropyl-6-oxo-1,6-dihydropyridin-3-yl)amino)-1,8-naphthyridin-4(1H)-one] | < 5.30
17 | CC(C)c1[nH]c(=O)c(-c2cc(Cl)ccc2F)cc1Nc1ccnc(C(C)(C)C#N)c1 [Compound 1.60, 2-(4-((5-(5-chloro-2-fluorophenyl)-2-isopropyl-6-oxo-1,6-dihydropyridin-3-yl)amino)pyridin-2-yl)-2-methylpropanenitrile] | < 5.30
18 | CC(C)c1[nH]c(=O)c(-c2cc(Cl)ccc2F)cc1Nc1ccnc2c1CCC(=O)N2 [Compound 1.62, 5-((5-(5-chloro-2-fluorophenyl)-2-isopropyl-6-oxo-1,6-dihydropyridin-3-yl)amino)-3,4-dihydro-1,8-naphthyridin-2(1H)-one] | < 5.30
19 | CC(=O)Nc1cc(N(C)c2cc(-c3cc(Cl)ccc3F)c(=O)[nH]c2C(C)C)ccn1 [Compound 1.66, N-(4-((5-(5-chloro-2-fluorophenyl)-2-isopropyl-6-oxo-1,6-dihydropyridin-3-yl)(methyl)amino)pyridin-2-yl)acetamide] | 5.70 to 6.30
20 | O=c1[nH]c(C2CC2)c(Nc2ccnc3ccncc23)cc1-c1cc(Cl)ccc1F [Compound 1.67, 5-((1,6-naphthyridin-4-yl)amino)-3-(5-chloro-2-fluorophenyl)-6-cyclopropylpyridin-2(1H)-one] | ≥ 6.30
21 | CNC(=O)c1cnccc1Nc1cc(-c2cc(Cl)ccc2F)c(=O)[nH]c1C1CC1 [Compound 1.68, 4-((5-(5-chloro-2-fluorophenyl)-2-cyclopropyl-6-oxo-1,6-dihydropyridin-3-yl)amino)-N-methylnicotinamide] | ≥ 6.30
22 | CCc1[nH]c(=O)c(-c2cc(Cl)ccc2F)cc1Nc1ccnc2ccncc12 [Compound 1.71, 5-((1,6-naphthyridin-4-yl)amino)-3-(5-chloro-2-fluorophenyl)-6-ethylpyridin-2(1H)-one] | ≥ 6.30
23 | CCc1[nH]c(=O)c(-c2cc(Cl)ccc2F)cc1Nc1ccncc1C(=O)NC [Compound 1.72, 4-((5-(5-chloro-2-fluorophenyl)-2-ethyl-6-oxo-1,6-dihydropyridin-3-yl)amino)-N-methylnicotinamide] | ≥ 6.30
24 | COc1[nH]c(=O)c(-c2cc(Cl)ccc2F)cc1Nc1ccnc2ccncc12 [Compound 1.73, 5-((1,6-naphthyridin-4-yl)amino)-3-(5-chloro-2-fluorophenyl)-6-methoxypyridin-2(1H)-one] | 5.70 to 6.30
25 | NC(=O)c1cnccc1Nc1cc(-c2cc(Cl)ccc2F)c(=O)[nH]c1C1CC1 [Compound 1.74, 4-((5-(5-chloro-2-fluorophenyl)-2-cyclopropyl-6-oxo-1,6-dihydropyridin-3-yl)amino)nicotinamide] | ≥ 6.30
26 | COc1[nH]c(=O)c(-c2cc(Cl)ccc2F)cc1Nc1ccnc2[nH]ccc12 [Compound 1.76, 5-((1H-pyrrolo[2,3-b]pyridin-4-yl)amino)-3-(5-chloro-2-fluorophenyl)-6-methoxypyridin-2(1H)-one] | ≥ 6.30
27 | Cc1cnc(Nc2cc(Nc3cc(-c4cc(Cl)ccc4F)c(=O)[nH]c3C3CC3)ccn2)s1 [Compound 1.77, 3-(5-chloro-2-fluorophenyl)-6-cyclopropyl-5-((2-((5-methylthiazol-2-yl)amino)pyridin-4-yl)amino)pyridin-2(1H)-one] | 5.30 to 5.70
28 | CC(C)c1[nH]c(=O)c(-c2cc(Cl)ccc2F)cc1Nc1ncnc2c1CC(=O)N2 [Compound 1.78, 4-((5-(5-chloro-2-fluorophenyl)-2-isopropyl-6-oxo-1,6-dihydropyridin-3-yl)amino)-5,7-dihydro-6H-pyrrolo[2,3-d]pyrimidin-6-one] | ≥ 6.30
